Columns and labels:
Type in all cases: in vivo
[1] = test system: Peripheral Sensory Neuropathy Induced by Oxaliplatin in Mice; assay: von Frey test, oxaliplatin-induced peripheral sensory neuropathy
Protocol: (§2) Male Balb/c mice of 6 to 7 weeks old were used. The mice were divided into three groups: a control group, an oxaliplatin administration group, and an oxaliplatin and Lentinus edodes mycelium extract administration group (oxaliplatin+Lentinus edodes mycelium extract administration group). Oxaliplatin was administered to each mouse once a day at a dose of 6 mg/kg. Further, the Lentinus edodes mycelium extract was administered to each mouse once a day at a dose of 2 g/kg.
(§3) Further, the number of times of administration was set to once a week (on Day 0, Day 7, and Day 14) for oxaliplatin and daily (from Day 0 to Day 15) for the Lentinus edodes mycelium extract in both the von Frey test and the cold plate test below.
The higher number of times of avoidance means that the mouse avoids the stimulation by the filament more. […] When the difference with the control group was determined to be significant using a significance level of 5%, the data were marked by “*”.

[2] = test system: Peripheral Sensory Neuropathy Induced by Oxaliplatin in Mice; assay: cold plate test, oxaliplatin-induced peripheral sensory neuropathy; conditions: duloxetine 30 mg/kg daily
Protocol: as §2, §3
Oxaliplatin was administered to each mouse once a day at a dose of 6 mg/kg. Further, the Lentinus edodes mycelium extract was administered to each mouse once a day at a dose of 2 g/kg three days or six days after the administration of oxaliplatin. These groups are referred to as “Lentinus edodes mycelium extract 3-day delayed administration group” and “Lentinus edodes mycelium extract 6-day delayed administration group”, respectively.
Further, groups in which duloxetine was administered after the administration of oxaliplatin were prepared for comparison.

[3] = test system: Peripheral Sensory Neuropathy Induced by Paclitaxel in Mice; assay: cold plate test, paclitaxel-induced peripheral sensory neuropathy; conditions: duloxetine 30 mg/kg daily
Protocol: (§1) The effect of the Lentinus edodes mycelium extract on the paresthesia to cold stimulation was tested by performing the cold plate test. The mice in the three groups in the above (1) were put on a cold plate set to 10° C. and a response time for avoidance (a latency) was measured. The shorter latency means that the mouse avoids the cold stimulation of the cold plate more.
In the present test, the mice were divided into four groups by a difference in test objects. As in Example 1, male Balb/c mice of 6 to 7 weeks old were used. The mice were divided into a total of four groups, a control group, a paclitaxel administration group, and two different paclitaxel and Lentinus edodes mycelium extract administration groups (paclitaxel+Lentinus edodes mycelium extract administration groups). […] Further, a group in which the Lentinus edodes mycelium extract was administered to each mouse once a day at a dose of 1 g/kg (hereinafter referred to as “1 g/kg administration group”) and a group in which the Lentinus edodes mycelium extract was administered to each mouse once a day at a dose of 2 g/kg (hereinafter referred to as “2 g/kg administration group”) were prepared.
Evaluation was performed in the same manner as in the test with oxaliplatin. Referring to FIG. 4, the horizontal axis indicates the elapsed time after administration (days) and the vertical axis indicates the avoidance response time (seconds). Open circles with a solid line represent the control group. Filled circles with a solid line represent the group in which only paclitaxel was administered. Open squares with a dash line and filled squares with a dash line represent the groups in which paclitaxel and the Lentinus edodes mycelium extract were administered at the same time (paclitaxel+Lentinus edodes mycelium extract administration groups). […] When the difference with the control group was determined to be significant using a significance level of 5%, the data were marked by “*”. […]

[4] = test system: Peripheral Sensory Neuropathy Induced by Bortezomib in Mice; assay: cold plate test, bortezomib-induced peripheral sensory neuropathy; conditions: duloxetine 30 mg/kg daily
Protocol: as §1
In the present test, the mice were divided into three groups by a difference in test objects. As in Example 1, male Balb/c mice of 6 to 7 weeks old were used. The mice were divided into a total of three groups, a control group, a bortezomib administration group, and a bortezomib and Lentinus edodes mycelium extract administration group (bortezomib+Lentinus edodes mycelium extract administration group).
Bortezomib was administered to each mouse once a day at a dose of 1 mg/kg. Further, the Lentinus edodes mycelium extract was administered to each mouse once a day at a dose of 2 g/kg.
Evaluation was performed in the same manner as in the test with oxaliplatin in Example 1. Referring to FIG. 8, the horizontal axis indicates the elapsed time after administration (days) and the vertical axis indicates the avoidance response time (seconds). Open circles with a solid line represent the control group. Filled circles with a solid line represent the group in which only bortezomib was administered. Open squares with a dash line represent the group in which bortezomib and the Lentinus edodes mycelium extract were administered at the same time (bortezomib+Lentinus edodes mycelium extract administration groups). When the difference with the control group was determined to be significant using a significance level of 5%, the data were marked by “*”.
In the present test, the mice were divided into six groups by a difference in test objects. As in Example 1, male Balb/c mice of 6 to 7 weeks old were used. […]

CNCC[C@H](Oc1cccc2ccccc12)c1cccs1 [duloxetine]
avoidance score compared with oxaliplatin administration group, von Frey test ([1]; duloxetine 30 mg/kg daily Day 3 to Day 23 (3-day delayed) after oxaliplatin 6 mg/kg weekly): almost the same score as that in the oxaliplatin administration group | avoidance score, von Frey test ([1]; duloxetine 30 mg/kg daily Day 6 to Day 23 (6-day delayed) after oxaliplatin 6 mg/kg weekly): same tendency as that in the duloxetine 3-day delayed administration group | latency compared with oxaliplatin administration group, cold plate test ([2]; 3-day delayed after oxaliplatin): almost the same as that in the oxaliplatin administration group | latency, cold plate test ([2]; 6-day delayed after oxaliplatin): same tendency as that in the duloxetine 3-day delayed administration group | latency compared with paclitaxel administration group, cold plate test ([3]; 3-day delayed after paclitaxel): almost the same as that in the paclitaxel administration group | latency, cold plate test ([3]; 6-day delayed after paclitaxel): same tendency as that in the duloxetine 3-day delayed administration group | latency compared with bortezomib administration group, cold plate test ([4]; 3-day delayed after bortezomib): almost the same as that in the bortezomib administration group | latency, cold plate test ([4]; 6-day delayed after bortezomib): same tendency as that in the duloxetine 3-day delayed administration group

Source: patent publication US11793845B2, “Composition for ameliorating peripheral sensory neuropathy” (KINKI UNIVERSITY, priority 2016, dated 2023)
